Measured values reported in patent US8476253B2, “Amide derivative” (Daiichi Sankyo Company, Limited, priority 2009, dated 2013).
Counter-ions that a name gives are not always drawn. Like-named read-outs stand apart in the source and are kept apart here.

Tests used:
muscarine M3 receptor = test: Effect of suppressing methacholine-induced airway contraction (in vivo, intratracheal administration); set-up: species or system guinea pig; conditions: guinea pigs, intratracheal administration 60 minutes before 30 μg/kg i.v. methacholine, AUC of increase in airway pressure over 10 minutes
Summary of the method: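 Anesthetized, gallamine-paralysed, ventilated male Hartley guinea pigs (350–550 g); compound in 5% glucose given intratracheally 60 min before 30 μg/kg i.v. methacholine. Airway pressure AUC over 10 min scored; ID50 from inhibition versus 5% glucose vehicle group.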

substance P receptor = biological target: T1, substance P receptor (Cavia porcellus, UniProt P30547); test: Test for binding to guinea-pig substance P receptor (crude lung membrane sample)
T1 construct: A preparation of a crude lung membrane sample was prepared; from tissue; host or cells: guinea-pig lung (crude membrane sample)
Protocol: A preparation of a crude lung membrane sample was prepared, and a test for binding of a test substance to the sample was performed according to the method described in EP0336230A2.
The binding effect of the test substance to a substance P receptor was calculated as an affinity (Ki) of the test substance for the substance P receptor from a 50% binding concentration (IC50) and an affinity (Kd) of [^3H]substance P for the substance P receptor.

human NK2 receptor = biological target: T2, human NK2 receptor (Homo sapiens, UniProt P21452); test: Test for binding to human NK2 receptor
T2 construct: expressed in transfected cells; host or cells: COS cells
T2 sequence (P21452 1-398): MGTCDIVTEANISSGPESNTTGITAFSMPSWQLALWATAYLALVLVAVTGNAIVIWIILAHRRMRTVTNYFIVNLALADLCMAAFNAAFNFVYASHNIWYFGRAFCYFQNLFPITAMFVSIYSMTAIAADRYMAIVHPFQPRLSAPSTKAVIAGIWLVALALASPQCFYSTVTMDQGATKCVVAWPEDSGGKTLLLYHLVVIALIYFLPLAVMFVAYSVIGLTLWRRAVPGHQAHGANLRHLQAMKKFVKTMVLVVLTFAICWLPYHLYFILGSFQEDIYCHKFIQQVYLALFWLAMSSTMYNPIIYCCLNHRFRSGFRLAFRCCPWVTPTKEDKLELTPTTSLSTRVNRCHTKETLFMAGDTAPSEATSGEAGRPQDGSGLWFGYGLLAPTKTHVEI
Summary of the method: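 Radioligand binding with [^3H]SR 48968 on cryopreserved COS cells expressing human NK2 receptor (5.0×10^5 cells/mL), in 50 mM Tris-HCl pH 7.4 with BSA, MnCl2 and protease inhibitors. Bound label collected on PEI-treated GF/B filters, counted by liquid scintillation; Ki derived from IC50 and radioligand Kd.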

[1] = COS cells expressing human NK2 receptor, [3H]SR 48968 1 nM, Ki from IC50 and Kd, read-out: Ki
[2] = crude guinea-pig lung membrane sample, [3H]substance P, Ki from IC50 and Kd, read-out: Ki

T1 sequence (P30547 whole entry): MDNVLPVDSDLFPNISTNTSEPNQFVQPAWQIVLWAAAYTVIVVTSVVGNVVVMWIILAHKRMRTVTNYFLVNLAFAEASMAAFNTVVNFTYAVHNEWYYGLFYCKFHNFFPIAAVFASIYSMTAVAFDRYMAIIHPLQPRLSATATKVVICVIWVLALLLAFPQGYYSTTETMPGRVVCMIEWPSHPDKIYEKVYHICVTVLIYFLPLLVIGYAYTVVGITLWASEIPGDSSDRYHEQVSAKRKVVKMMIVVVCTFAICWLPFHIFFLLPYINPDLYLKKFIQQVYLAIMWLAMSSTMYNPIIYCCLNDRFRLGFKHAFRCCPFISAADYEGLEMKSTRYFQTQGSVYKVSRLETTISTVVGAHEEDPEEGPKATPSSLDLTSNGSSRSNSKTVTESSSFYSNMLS

SMILES	ID50 (muscarine M3 receptor)	Ki (substance P receptor)	Ki (human NK2 receptor; [1])	Ki (substance P receptor; [2])	Ki (human NK2 receptor)	ID50 (muscarine M3 receptor; trihydrochloride)
CN(CCN1CCC(OC(=O)Nc2ccccc2-c2ccccc2)CC1)C(=O)CCN(C)c1ccc(C(=O)N(C)CCCN(C)C(=O)CO[C@H]2Cc3ccccc3C23CCN(CC[C@@]2(c4ccc(F)cc4)CN(C(=O)c4cc(C(F)(F)F)cc(C(F)(F)F)c4)CO2)CC3)cc1 [Example 95, 1-{2-[(N-{4-[{3-[({[(2S)-1′-{2-[(5R)-3-[3,5-Bis(trifluoromethyl)benzoyl]-5-(4-fluorophenyl)-1,3-oxazolidin-5-yl]ethyl}-2,3-dihydrospiro[indene-1,4′-piperidin]-2-yl]oxy}acetyl)(methy)amino]propyl}(methyl)carbamoyl]phenyl}-N-methyl-β-alanyl)(methyl)amino]ethyl}piperidin-4-yl biphenyl-2-ylcarbamate]	0.0462 mg/kg	1.4 nM	0.81 nM	–	–	–
Cc1nc(NCCCCCC(=O)N(C)CCN2CCC(OC(=O)Nc3ccccc3-c3ccccc3)CC2)sc1C(=O)N(C)CCCN(C)C(=O)CO[C@H]1Cc2ccccc2C12CCN(CC[C@@]1(c3ccc(F)cc3)CN(C(=O)c3cc(C(F)(F)F)cc(C(F)(F)F)c3)CO1)CC2 [Example 105, 1-(2-{[6-({5-[{3-[({[(2S)-1′-{2-[(5R)-3-[3,5-Bis(trifluoromethyl)benzoyl]-5-(4-fluorophenyl)-1,3-oxazolidin-5-yl]ethyl}-2,3-dihydrospiro[indene-1,4′-piperidin]-2-yl]oxy}acetyl)(methyl)amino]propyl}(methyl)carbamoyl]-4-methyl-1,3-thiazol-2-yl}amino)hexanoyl](methyl)amino}ethyl)piperidin-4-yl biphenyl-2-ylcarbamate trihydrochloride]	0.04 mg/kg	–	–	2.1 nM	0.85 nM	–
CN(CCCCCC(=O)N(C)CCN1CCC(OC(=O)Nc2ccccc2-c2ccccc2)CC1)Cc1ccc(C(=O)N(C)CCCN(C)C(=O)CO[C@H]2Cc3ccccc3C23CCN(CC[C@@]2(c4ccc(F)cc4)CN(C(=O)c4cc(C(F)(F)F)cc(C(F)(F)F)c4)CO2)CC3)cc1 [Example 74, 1-{2-[{6-[{4-[{3-[({[(2S)-1′-{2-[(5R)-3-[3,5-Bis(trifluoromethyl)benzoyl]-5-(4-fluorophenyl)-1,3-oxazolidin-5-yl]ethyl}-2,3-dihydrospiro[indene-1,4′-piperidin]-2-yl]oxy}acetyl)(methyl)amino]propyl}(methyl)carbamoyl]benzyl}(methyl)amino]hexanoyl}(methyl)amino]ethyl}piperidin-4-yl biphenyl-2-ylcarbamate]	0.043 mg/kg	–	0.14 nM	0.87 nM	–	–
CN(CCN1CCC(OC(=O)Nc2ccccc2-c2ccccc2)CC1)C(=O)CCCCCNc1ccc(C(=O)N(C)CCCN(C)C(=O)CO[C@H]2Cc3ccccc3C23CCN(CC[C@@]2(c4ccc(F)cc4)CN(C(=O)c4cc(C(F)(F)F)cc(C(F)(F)F)c4)CO2)CC3)nc1 [Example 9, 1-(2-{[6-({6-[{3-[({[(2S)-1′-{2-[(5R)-3-[3,5-Bis(trifluoromethyl)benzoyl]-5-(4-fluorophenyl)-1,3-oxazolidin-5-yl]ethyl}-2,3-dihydrospiro[indene-1,4′-piperidin]-2-yl]oxy}acetyl)(methyl)amino]propyl}(methyl)carbamoyl]pyridin-3-yl}amino)hexanoyl](methyl)amino}ethyl)piperidin-4-yl biphenyl-2-ylcarbamate]	0.0164 mg/kg	–	0.66 nM	2.1 nM	–	–
CN(CCN1CCC(OC(=O)Nc2ccccc2-c2ccccc2)CC1)C(=O)CCCCCNc1ccc(C(=O)N(C)CCN(C)C(=O)CO[C@H]2Cc3ccccc3C23CCN(CC[C@@]2(c4ccc(F)cc4)CN(C(=O)c4cc(C(F)(F)F)cc(C(F)(F)F)c4)CO2)CC3)cc1 [Example 16, 1-(2-{[6-({4-[{2-[({[(2S)-1′-{2-[(5R)-3-[3,5-Bis(trifluoromethyl)benzoyl]-5-(4-fluorophenyl)-1,3-oxazolidin-5-yl]ethyl}-2,3-dihydrospiro[indene-1,4′-piperidin]-2-yl]oxy}acetyl)(methyl)amino]ethyl}(methyl)carbamoyl]phenyl}amino)hexanoyl](methyl)amino}ethyl)piperidin-4-yl biphenyl-2-ylcarbamate trihydrochloride]	–	–	–	2.5 nM	0.49 nM	0.0191 mg/kg
CN(CCN1CCC(OC(=O)Nc2ccccc2-c2ccccc2)CC1)C(=O)CCCCN(C)c1ccc(C(=O)N(C)CCCN(C)C(=O)CO[C@H]2Cc3ccccc3C23CCN(CC[C@@]2(c4ccc(F)cc4)CN(C(=O)c4cc(C(F)(F)F)cc(C(F)(F)F)c4)CO2)CC3)cc1 [Example 38, 1-{2-[{5-[{4-[{3-[({[(2S)-1′-{2-[(5R)-3-[3,5-Bis(trifluoromethyl)benzoyl]-5-(4-fluorophenyl)-1,3-oxazolidin-5-yl]ethyl}-2,3-dihydrospiro[indene-1,4′-piperidin]-2-yl]oxy}acetyl)(methy)amino]propyl}(methyl)carbamoyl]phenyl}(methyl)amino]pentanoyl}(methyl)amino]ethyl}piperidin-4-yl biphenyl-2-ylcarbamate trihydrochloride]	0.0257 mg/kg	–	0.89 nM	1.5 nM	–	–
